Experiments:
Assay in all cases: Test E preemergence
morningglory = assay type: in vivo, Ipomoea coccinea; settings: for Morningglory plant response rating: scale 0 to 100 (0 no effect, 100 complete control); for Plant response rating, Morningglory: scale 0 to 100, 0 no effect, 100 complete control
How it was run: (§1)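 Compound in a non-phytotoxic solvent mixture with surfactant was applied preemergence to seeds in silt loam soil, or postemergence to plants 2 to 18 cm tall grown in peat-based potting medium. Plants were kept in a greenhouse for 14 to 21 days, then rated visually against untreated controls on a 0 (no effect) to 100 (complete control) scale.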

goosegrass = assay type: in vivo, Eleusine indica; settings: for Goosegrass plant response rating: scale 0 to 100 (0 no effect, 100 complete control); for Plant response rating, Goosegrass: scale 0 to 100, 0 no effect, 100 complete control
How it was run: as §1

Italian ryegrass = assay type: in vivo, Lolium multiflorum; settings: for Ryegrass, Italian plant response rating: scale 0 to 100 (0 no effect, 100 complete control); for Plant response rating, Ryegrass, Italian: scale 0 to 100, 0 no effect, 100 complete control
How it was run: as §1

corn = assay type: in vivo, Zea mays; settings: for Corn plant response rating: scale 0 to 100 (0 no effect, 100 complete control); for Plant response rating, Corn: scale 0 to 100, 0 no effect, 100 complete control
How it was run: as §1

johnsongrass = assay type: in vivo, Sorghum halepense; settings: for Johnsongrass plant response rating: scale 0 to 100 (0 no effect, 100 complete control); for Plant response rating, Johnsongrass: scale 0 to 100, 0 no effect, 100 complete control
How it was run: as §1

kochia = assay type: in vivo, Kochia scoparia; settings: for Kochia plant response rating: scale 0 to 100 (0 no effect, 100 complete control); for Plant response rating, Kochia: scale 0 to 100, 0 no effect, 100 complete control
How it was run: as §1

hairy beggarticks = assay type: in vivo, Bidens pilosa; settings: for Beggarticks plant response rating: scale 0 to 100 (0 no effect, 100 complete control); for Plant response rating, Beggarticks: scale 0 to 100, 0 no effect, 100 complete control
How it was run: as §1

nightshade = assay type: in vivo, Solanum ptycanthum; settings: for Nightshade plant response rating: scale 0 to 100 (0 no effect, 100 complete control); for Plant response rating, Nightshade: scale 0 to 100, 0 no effect, 100 complete control
How it was run: as §1

giant foxtail = assay type: in vivo, Setaria faberii; settings: for Foxtail, Giant plant response rating: scale 0 to 100 (0 no effect, 100 complete control); for Plant response rating, Foxtail, Giant: scale 0 to 100, 0 no effect, 100 complete control
How it was run: as §1

waterhemp = assay type: in vivo, Amaranthus rudis; settings: for Waterhemp plant response rating: scale 0 to 100 (0 no effect, 100 complete control); for Plant response rating, Waterhemp: scale 0 to 100, 0 no effect, 100 complete control
How it was run: as §1

field bindweed = assay type: in vivo, Convolvulus arvensis; settings: for Field Bindweed plant response rating: scale 0 to 100 (0 no effect, 100 complete control); for Plant response rating, Field Bindweed: scale 0 to 100, 0 no effect, 100 complete control
How it was run: as §1

## N#Cc1cccc(Oc2ncc(F)cn2)c1-n1cc(Cl)cn1 [Compound 73]
morningglory; 16 g ai/ha
  Morningglory plant response rating: 0
morningglory; 31 g ai/ha
  Morningglory plant response rating: 0
morningglory; 62 g ai/ha
  Morningglory plant response rating: 10
morningglory; 125 g ai/ha
  Plant response rating, Morningglory: 30
morningglory; 250 g ai/ha
  Plant response rating, Morningglory: 60
goosegrass; 16 g ai/ha
  Goosegrass plant response rating: 0
goosegrass; 31 g ai/ha
  Goosegrass plant response rating: 20
goosegrass; 62 g ai/ha
  Goosegrass plant response rating: 70
goosegrass; 125 g ai/ha
  Plant response rating, Goosegrass: 98
goosegrass; 250 g ai/ha
  Plant response rating, Goosegrass: 100
Italian ryegrass; 16 g ai/ha
  Ryegrass, Italian plant response rating: 0
Italian ryegrass; 31 g ai/ha
  Ryegrass, Italian plant response rating: 20
Italian ryegrass; 62 g ai/ha
  Ryegrass, Italian plant response rating: 35
Italian ryegrass; 125 g ai/ha
  Plant response rating, Ryegrass, Italian: 35
Italian ryegrass; 250 g ai/ha
  Plant response rating, Ryegrass, Italian: 65
corn; 16 g ai/ha
  Corn plant response rating: 0
corn; 31 g ai/ha
  Corn plant response rating: 0
corn; 62 g ai/ha
  Corn plant response rating: 0
corn; 125 g ai/ha
  Plant response rating, Corn: 0
corn; 250 g ai/ha
  Plant response rating, Corn: 5
johnsongrass; 16 g ai/ha
  Johnsongrass plant response rating: 0
johnsongrass; 31 g ai/ha
  Johnsongrass plant response rating: 20
johnsongrass; 62 g ai/ha
  Johnsongrass plant response rating: 20
johnsongrass; 125 g ai/ha
  Plant response rating, Johnsongrass: 35
johnsongrass; 250 g ai/ha
  Plant response rating, Johnsongrass: 85
kochia; 16 g ai/ha
  Kochia plant response rating: 5
kochia; 31 g ai/ha
  Kochia plant response rating: 75
kochia; 62 g ai/ha
  Kochia plant response rating: 98
kochia; 125 g ai/ha
  Plant response rating, Kochia: 98
kochia; 250 g ai/ha
  Plant response rating, Kochia: 100
Hairy beggarticks; 16 g ai/ha, preemergence
  Beggarticks plant response rating: 5
Hairy beggarticks; 31 g ai/ha, preemergence
  Beggarticks plant response rating: 5
Hairy beggarticks; Preemergence, 62 g ai/ha
  Plant response rating, Beggarticks: 20
Hairy beggarticks; preemergence, 125 g ai/ha
  Plant response rating, Beggarticks: 50
Hairy beggarticks; preemergence, 250 g ai/ha
  Plant response rating, Beggarticks: 75
nightshade; 16 g ai/ha
  Nightshade plant response rating: 65
nightshade; 31 g ai/ha
  Nightshade plant response rating: 80
nightshade; 62 g ai/ha
  Nightshade plant response rating: 90
nightshade; 125 g ai/ha
  Plant response rating, Nightshade: 98
nightshade; 250 g ai/ha
  Plant response rating, Nightshade: 100
Giant foxtail; 16 g ai/ha
  Foxtail, Giant plant response rating: 0
Giant foxtail; 31 g ai/ha
  Foxtail, Giant plant response rating: 20
Giant foxtail; 62 g ai/ha
  Foxtail, Giant plant response rating: 50
Giant foxtail; 125 g ai/ha
  Plant response rating, Foxtail, Giant: 95
Giant foxtail; 250 g ai/ha
  Plant response rating, Foxtail, Giant: 100
waterhemp; 16 g ai/ha
  Waterhemp plant response rating: 65
waterhemp; 31 g ai/ha
  Waterhemp plant response rating: 100
waterhemp; 62 g ai/ha
  Waterhemp plant response rating: 100
waterhemp; 125 g ai/ha
  Plant response rating, Waterhemp: 100
waterhemp; 250 g ai/ha
  Plant response rating, Waterhemp: 100
Field bindweed; 16 g ai/ha
  Field Bindweed plant response rating: 0
Field bindweed; 31 g ai/ha
  Field Bindweed plant response rating: 15
Field bindweed; 62 g ai/ha
  Field Bindweed plant response rating: 50
Field bindweed; 125 g ai/ha
  Plant response rating, Field Bindweed: 75
Field bindweed; 250 g ai/ha
  Plant response rating, Field Bindweed: 85

## FC(F)(F)c1cnn(-c2ccccc2Oc2ncc(Br)cn2)c1 [Compound 18, 5-bromo-2-[2-[4-(trifluoromethyl)-1H-pyrazol-1-yl]phenoxy]pyrimidine]
morningglory; 16 g ai/ha
  Morningglory plant response rating: 0
morningglory; 31 g ai/ha
  Morningglory plant response rating: 0
morningglory; 62 g ai/ha
  Morningglory plant response rating: 0
morningglory; 125 g ai/ha
  Plant response rating, Morningglory: 0
morningglory; 250 g ai/ha
  Plant response rating, Morningglory: 35
goosegrass; 16 g ai/ha
  Goosegrass plant response rating: 0
goosegrass; 31 g ai/ha
  Goosegrass plant response rating: 0
goosegrass; 62 g ai/ha
  Goosegrass plant response rating: 30
goosegrass; 125 g ai/ha
  Plant response rating, Goosegrass: 90
goosegrass; 250 g ai/ha
  Plant response rating, Goosegrass: 98
Italian ryegrass; 16 g ai/ha
  Ryegrass, Italian plant response rating: 0
Italian ryegrass; 31 g ai/ha
  Ryegrass, Italian plant response rating: 0
Italian ryegrass; 62 g ai/ha
  Ryegrass, Italian plant response rating: 0
Italian ryegrass; 125 g ai/ha
  Plant response rating, Ryegrass, Italian: 20
Italian ryegrass; 250 g ai/ha
  Plant response rating, Ryegrass, Italian: 35
corn; 16 g ai/ha
  Corn plant response rating: 0
corn; 31 g ai/ha
  Corn plant response rating: 0
corn; 62 g ai/ha
  Corn plant response rating: 0
corn; 125 g ai/ha
  Plant response rating, Corn: 0
corn; 250 g ai/ha
  Plant response rating, Corn: 0
johnsongrass; 16 g ai/ha
  Johnsongrass plant response rating: 0
johnsongrass; 31 g ai/ha
  Johnsongrass plant response rating: 0
johnsongrass; 62 g ai/ha
  Johnsongrass plant response rating: 0
johnsongrass; 125 g ai/ha
  Plant response rating, Johnsongrass: 80
kochia; 16 g ai/ha
  Kochia plant response rating: 0
kochia; 31 g ai/ha
  Kochia plant response rating: 0
kochia; 62 g ai/ha
  Kochia plant response rating: 80
kochia; 125 g ai/ha
  Plant response rating, Kochia: 100
kochia; 250 g ai/ha
  Plant response rating, Kochia: 100
Hairy beggarticks; 16 g ai/ha, preemergence
  Beggarticks plant response rating: 0
Hairy beggarticks; 31 g ai/ha, preemergence
  Beggarticks plant response rating: 0
Hairy beggarticks; Preemergence, 62 g ai/ha
  Plant response rating, Beggarticks: 0
Hairy beggarticks; preemergence, 125 g ai/ha
  Plant response rating, Beggarticks: 0
Hairy beggarticks; preemergence, 250 g ai/ha
  Plant response rating, Beggarticks: 0
nightshade; 16 g ai/ha
  Nightshade plant response rating: 0
nightshade; 31 g ai/ha
  Nightshade plant response rating: 95
nightshade; 62 g ai/ha
  Nightshade plant response rating: 98
nightshade; 125 g ai/ha
  Plant response rating, Nightshade: 100
nightshade; 250 g ai/ha
  Plant response rating, Nightshade: 100
Giant foxtail; 16 g ai/ha
  Foxtail, Giant plant response rating: 0
Giant foxtail; 31 g ai/ha
  Foxtail, Giant plant response rating: 15
Giant foxtail; 62 g ai/ha
  Foxtail, Giant plant response rating: 65
Giant foxtail; 125 g ai/ha
  Plant response rating, Foxtail, Giant: 95
Giant foxtail; 250 g ai/ha
  Plant response rating, Foxtail, Giant: 98
waterhemp; 16 g ai/ha
  Waterhemp plant response rating: 100
waterhemp; 31 g ai/ha
  Waterhemp plant response rating: 100
waterhemp; 62 g ai/ha
  Waterhemp plant response rating: 100
waterhemp; 125 g ai/ha
  Plant response rating, Waterhemp: 100
waterhemp; 250 g ai/ha
  Plant response rating, Waterhemp: 100
Field bindweed; 16 g ai/ha
  Field Bindweed plant response rating: 0
Field bindweed; 31 g ai/ha
  Field Bindweed plant response rating: 0
Field bindweed; 62 g ai/ha
  Field Bindweed plant response rating: 30
Field bindweed; 125 g ai/ha
  Plant response rating, Field Bindweed: 40
Field bindweed; 250 g ai/ha
  Plant response rating, Field Bindweed: 40

Reference: patent US9695155B2, “Herbicidal substituted pyrimidinyloxy benzene compounds” (E. I. DU PONT DE NEMOURS AND COMPANY, priority 2013, dated 2017)
